# According to patent US10590129B2 (Incozen Therapeutics Pvt. Ltd., priority 2010, dated 2020):
# Read-outs that look alike come from different tables or passages of the source.
# Tests used:
# [1] = target: RON (Homo sapiens, UniProt Q04912); conditions: cited from earlier work
# [2] = target: T1, c-Met (Homo sapiens, UniProt P08581); conditions: cited from earlier work
# [3] = test system: MKN-45 cells; assay: Inhibition of MKN-45 proliferation (MTT); format: cell-based, human; conditions: for GI50 / inhibition at 0.1 µM: Homo sapiens, MKN-45, MKN-45 proliferation
# In short: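 High-Met human gastric adenocarcinoma MKN-45 cells plated in complete growth medium, compounds added next day and viability read 3 days later by MTT dye reduction.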
# [4] = test system: Akt; assay: Inhibition of Akt phosphorylation in MKN-45 cells (western blot, pAkt S473); format: cell-based; conditions: Homo sapiens
# Experimental: (§1) Inhibition of Akt Phosphorylation in MKN-45 or NCI-11441 Cells:
# (§2) Akt is a serine-threonine kinase and a downstream marker regulated by c-Met kinase via the PI3K pathway. Once phosphorylated, Akt regulates several end processes including cell survival and growth. Cells were treated with 0−1000 nM of test compounds, lysed, and the proteins separated on a 10% SDS-PAGE. Following separation, proteins were transferred onto a nitrocellulose membrane and detected by chemiluminescence after incubation with pAkt S473 mAb (primary) and rabbit anti-mouse Ab (secondary). Intensity of the bands was determined using ImageJ 1.42q (NIH, USA) and normalized to Actin (loading control).
# [5] = test system: MKN-45 cells; assay: Induction of apoptosis in MKN-45 cells (caspase-3 activity); format: cell-based, human; conditions: @ 3 μM, 24 h, caspase-3, percent of maximum response
# Experimental: 6. Induction of Apoptosis in MKN-45 Cells:
# Induction of Caspase 3 was measured fluorimetrically. Cells were incubated with desired concentrations of the compound for 24 h. After incubation, cells were harvested and counted. An equal number of viable cells per well (0.3×10^6 cells) were used for determination of caspase-3 activity. Increase in apoptosis manifested by an elevation in caspase-3 levels was determined using a Caspase-3 kit from Millipore. Data are expressed as a percent of the maximum response (100%).
# [6] = target: T2, Met kinase (Homo sapiens, UniProt P08581); assay: MET kinase assay (colorimetric determination of c-Met kinase activity, HTScan Met Kinase Assay Kit); format: biochemical; set-up: purchased Cell Signalling Technology, Beverly, Mass; conditions: for IC50: c-Met kinase
# Excerpt: 1. MET Kinase Assay Protocol:
# Colorimetric Determination of c-Met Kinase Activity
# The receptor tyrosine kinase c-Met is a heterodimeric transmembrane glycoprotein involved in several cellular processes that aid in tumor progression. Phosphorylation of the tyrosine residues in the c-Met kinase domain is critical for its activity and the resulting down-stream effects. The colorimetric assay allows detection of the phosphorylated form of a biotinylated peptide upon activation of human recombinant Met kinase.
# MET Kinase Assay Protocol:
# c-Met Kinase activity shall be determined using an HTScan® Met Kinase Assay Kit (Cell Signalling Technology, Beverly, Mass.) with modifications. All incubations are carried out at room temperature. Briefly, 12.5 μl of a 4× reaction cocktail (DTT/Kinase buffer containing appropriate quantity of human Met kinase) is added to each well of a 96-well plate containing 12.5 μl pre-diluted compound of interest and incubated for 5 minutes. After the initial incubation, 25 μl/well of 2×ATP/biotinylated peptide is added and incubated for an additional 30 minutes. The reaction is terminated by the addition of 50 μl/well stop buffer (50 mM EDTA, pH 8.0). The reaction mixture (25 μl/well) is then transferred to a streptavidin coated plate (Perkin Elmer, Cat#4009-0010) containing 75 μl dH2O and incubated for 60 minutes. The plate is washed with 200 μl/well wash buffer (1×PBS, 0.05% Tween-20). After washing, 100 μl/well phospho-tyrosine mAb (1:1000 in wash buffer containing 1% BSA) is added and incubated for 60 minutes. After another round of washes, 100 μl/well europium labelled anti-mouse IgG (1:500 in wash buffer containing 1% BSA) is added and incubated for an additional 30 minutes. Following additional washes, 100 μl/well Delfia® enhancement solution (Perkin Elmer, Cat#1244-105) is added and incubated for 45 minutes. Florescence is measured on a microplate reader (BMG Labtech., Germany) at 340 nm (excitation) and 615 nm (emission) for calculating % inhibition. Data generated can be analyzed further using Graphpad Prism (Graphpad software, San Diego Calif.) for determination of IC50.
# [7] = test system: Akt; assay: Inhibition of Akt phosphorylation in NCI-H441 cells (western blot, pAkt S473); format: cell-based; conditions: Homo sapiens
# Experimental: as §1, §2
# [8] = target: T1, c-Met; assay: Inhibition of c-Met kinase phosphorylation in NCI-H441 cells (cell based ELISA); set-up: endogenous in cells; host or cells: NCI-H441; conditions: 1 h
# Experimental: Inhibition of c-Met Kinase Phosphorylation in NCI—H441 Cells:
# Inhibition of Met phosphorylation was determined using a cell based ELISA assay according to the following schedule:
# Day 1: NCI—H441 cells were plated in 96-well plates in complete growth medium.
# Day 2: Inhibitors at the desired concentration were added to the plates, incubated for 1 h and lysed subsequently. Lysates were transferred to NUNC Maxisorp plates coated with anti-cMet receptor antibody. Phopho-tyrosine mAb and HRP-lined anti-mouse IgG were used as primary and secondary antibodies respectively. Optical density was measured on a microplate reader (BMG Labtech., Germany) at […].
# [9] = target: T2, Met kinase; assay: Inhibition of HGF-induced Met phosphorylation in MDA-MB-231 cells; format: cell-based; set-up: endogenous in cells; host or cells: MDA-MB-231; conditions: HGF 50 ng/ml, read-out: HGF stimulated Met phosphorylation (IC50)
# [10] = target: T1, c-Met; assay: Inhibition of c-Met kinase phosphorylation in MKN-45 cells (cell based ELISA); set-up: endogenous in cells; host or cells: MKN-45; conditions: 1 h
# Experimental: Inhibition of c-Met Kinase Phosphorylation in MKN-45 Cells:
# MKN45 cells are a prototype of “c-Met addicted” cells having constitutively activated c-Met kinase similar to that observed in sub-sects of gastric or hepatocellular cancer patients with dysregulated c-Met kinase activity. Inhibition of Met phosphorylation was determined using a cell based ELISA assay according to the following schedule:
# Day 1: MKN-45 cells were plated in 96-well plates in complete growth medium.
# Day 2: Inhibitors at the desired concentration were added to the plates and incubated for 1 h and lysed subsequently.
# Lysates were transferred to NUNC Maxisorp plates coated with anti-cMet receptor antibody. Phopho-tyrosine mAb and HRP-lined anti-mouse IgG were used as primary and secondary antibodies respectively. Optical density was measured on a microplate reader (BMG Labtech., Germany) at […]. Inhibition of c-Met phosphorylation in this cell line indicates a therapeutic potential for test compounds in patients diagnosed with cancers caused by aberrant c-Met kinase signalling.
# T2 sequence (P08581 25-1390): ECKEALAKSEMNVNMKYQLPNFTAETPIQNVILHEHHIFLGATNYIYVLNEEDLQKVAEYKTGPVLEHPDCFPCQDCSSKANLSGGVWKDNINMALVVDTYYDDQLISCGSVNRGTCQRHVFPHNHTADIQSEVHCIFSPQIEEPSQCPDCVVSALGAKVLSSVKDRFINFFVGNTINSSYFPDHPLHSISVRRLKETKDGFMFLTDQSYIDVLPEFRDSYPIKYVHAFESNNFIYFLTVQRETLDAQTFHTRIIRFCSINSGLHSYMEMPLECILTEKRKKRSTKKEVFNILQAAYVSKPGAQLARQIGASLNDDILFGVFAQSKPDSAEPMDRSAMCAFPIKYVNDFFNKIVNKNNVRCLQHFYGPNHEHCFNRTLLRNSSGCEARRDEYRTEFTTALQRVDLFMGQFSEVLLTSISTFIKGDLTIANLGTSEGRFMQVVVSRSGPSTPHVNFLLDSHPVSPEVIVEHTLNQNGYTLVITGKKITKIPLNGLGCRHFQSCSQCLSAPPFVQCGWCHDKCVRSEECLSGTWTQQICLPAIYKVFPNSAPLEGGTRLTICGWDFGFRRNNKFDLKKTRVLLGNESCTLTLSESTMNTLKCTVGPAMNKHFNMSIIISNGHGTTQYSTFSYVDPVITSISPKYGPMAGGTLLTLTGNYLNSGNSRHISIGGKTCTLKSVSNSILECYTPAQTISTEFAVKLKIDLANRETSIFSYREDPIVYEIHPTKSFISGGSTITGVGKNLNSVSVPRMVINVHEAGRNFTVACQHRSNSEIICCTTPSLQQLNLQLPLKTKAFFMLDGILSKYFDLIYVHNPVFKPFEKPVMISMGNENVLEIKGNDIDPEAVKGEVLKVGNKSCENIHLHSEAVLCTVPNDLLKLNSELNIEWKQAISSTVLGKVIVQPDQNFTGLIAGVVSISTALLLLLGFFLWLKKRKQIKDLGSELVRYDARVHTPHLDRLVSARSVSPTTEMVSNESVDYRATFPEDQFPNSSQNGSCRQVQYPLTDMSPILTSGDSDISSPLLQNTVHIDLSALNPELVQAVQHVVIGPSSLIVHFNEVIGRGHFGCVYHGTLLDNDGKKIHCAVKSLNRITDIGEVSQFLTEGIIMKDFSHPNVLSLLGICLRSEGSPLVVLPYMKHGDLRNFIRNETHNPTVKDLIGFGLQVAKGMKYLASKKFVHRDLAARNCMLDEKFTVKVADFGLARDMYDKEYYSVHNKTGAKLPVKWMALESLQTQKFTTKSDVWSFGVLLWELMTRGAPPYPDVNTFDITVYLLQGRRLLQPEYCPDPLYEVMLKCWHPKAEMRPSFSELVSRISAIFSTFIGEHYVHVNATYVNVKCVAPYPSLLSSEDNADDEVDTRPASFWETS
# T1 sequence (P08581 25-1390): as above
# Sequence of RON (Q04912 25-1400, species assumed): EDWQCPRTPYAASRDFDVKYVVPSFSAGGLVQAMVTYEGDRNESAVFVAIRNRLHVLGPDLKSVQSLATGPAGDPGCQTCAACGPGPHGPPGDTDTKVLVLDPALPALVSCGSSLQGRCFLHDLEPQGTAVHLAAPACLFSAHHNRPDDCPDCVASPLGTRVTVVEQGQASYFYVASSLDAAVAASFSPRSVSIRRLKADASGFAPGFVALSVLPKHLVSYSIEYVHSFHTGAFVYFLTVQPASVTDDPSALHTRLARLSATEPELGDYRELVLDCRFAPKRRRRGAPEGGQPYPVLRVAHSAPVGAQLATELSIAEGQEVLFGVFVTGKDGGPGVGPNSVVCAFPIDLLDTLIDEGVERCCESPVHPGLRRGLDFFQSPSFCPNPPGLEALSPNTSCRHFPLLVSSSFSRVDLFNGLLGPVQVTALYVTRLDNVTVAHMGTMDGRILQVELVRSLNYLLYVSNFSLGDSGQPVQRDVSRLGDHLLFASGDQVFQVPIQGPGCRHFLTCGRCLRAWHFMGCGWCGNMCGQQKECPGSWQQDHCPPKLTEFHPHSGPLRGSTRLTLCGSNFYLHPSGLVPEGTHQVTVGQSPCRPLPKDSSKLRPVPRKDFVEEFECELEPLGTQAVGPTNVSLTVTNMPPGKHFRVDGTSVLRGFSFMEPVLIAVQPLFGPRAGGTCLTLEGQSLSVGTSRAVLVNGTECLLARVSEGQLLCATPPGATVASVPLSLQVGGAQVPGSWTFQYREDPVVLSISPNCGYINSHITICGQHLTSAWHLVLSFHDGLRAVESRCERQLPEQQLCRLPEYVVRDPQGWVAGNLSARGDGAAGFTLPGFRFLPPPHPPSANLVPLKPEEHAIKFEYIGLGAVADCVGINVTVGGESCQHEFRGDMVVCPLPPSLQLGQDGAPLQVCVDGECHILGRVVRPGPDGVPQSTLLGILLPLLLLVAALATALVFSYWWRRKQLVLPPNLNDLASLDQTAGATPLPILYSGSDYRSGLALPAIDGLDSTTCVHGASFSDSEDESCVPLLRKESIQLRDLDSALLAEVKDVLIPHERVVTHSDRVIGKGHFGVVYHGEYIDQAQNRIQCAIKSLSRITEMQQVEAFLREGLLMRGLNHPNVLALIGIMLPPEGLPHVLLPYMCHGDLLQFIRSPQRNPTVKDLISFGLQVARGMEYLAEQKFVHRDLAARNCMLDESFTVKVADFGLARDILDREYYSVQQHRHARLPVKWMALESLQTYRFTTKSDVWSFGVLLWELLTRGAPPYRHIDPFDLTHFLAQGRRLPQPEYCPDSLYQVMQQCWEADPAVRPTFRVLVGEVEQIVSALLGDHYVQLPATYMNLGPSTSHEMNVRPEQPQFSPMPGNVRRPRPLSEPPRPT
Compound,IC50 [1],IC50 [2],GI50 [3],IC50 [4],Apoptosis in MKN-45 cells (percentage induction) [5],inhibition at 1 µM [6],IC50 [6],IC50 [7],melting point,IC50 [8],IC50 [9],IC50 [10],inhibition at 0.1 µM ([3]; 0.1 μM),"Inhibition (% Inhibition of MKN-45 proliferation) ([3]; MKN-45 proliferation, 0.1 μM)"
COc1ccc2c(Oc3ccc(NC(=O)c4c(C)n(CC(C)(C)O)n(-c5ccccc5)c4=O)nc3)ccnc2c1 [AMG-458],9 nM,4 nM,–,–,–,–,–,–,–,–,–,–,–,–
"NC(=O)c1ccc(-c2ccc3nnn(Cc4ccc5ncccc5c4)c3n2)cc1F [Ex 15, 2-Fluoro-4-(3-(quinolin-6-ylmethyl)-3H-[1,2,3]triazolo[4,5-b]pyridin-5-yl)benzamide]",–,–,50 to 150 nM,100 to 200 nM,A (A = >50 to 100%),75 to 100%,50 to 100 nM,≤ 25 nM,198 to 200 °C,10 to 50 nM,≤ 10 nM,50 to 150 nM,–,–
"NC(=O)c1ccc(-c2ccc3nnn(Cc4ccc5ncccc5c4)c3n2)cc1Cl [Ex 108, 2-Chloro-4-(3-(quinolin-6-ylmethyl)-3H-[1,2,3]triazolo[4,5-b]pyridin-5-yl)benzamide]",–,–,≤ 50 nM,≤ 25 nM,A (A = >50 to 100%),75 to 100%,≤ 50 nM,≤ 25 nM,212 to 215 °C,≤ 10 nM,≤ 10 nM,≤ 50 nM,50 to 75%,–
"CCNC(=O)c1ccc(-c2ccc3nnn(Cc4ccc5ncccc5c4)c3n2)cc1Cl [Ex 119, 2-Chloro-N-ethyl-4-(3-(quinolin-6-ylmethyl)-3H-[1,2,3]triazolo[4,5-b]pyridin-5-yl)benzamide]",–,–,≤ 50 nM,≤ 25 nM,A (A = >50 to 100%),75 to 100%,≤ 50 nM,≤ 25 nM,187 to 190 °C,≤ 10 nM,≤ 10 nM,≤ 50 nM,–,A (A = ≥75 to 100%)
"NC(=O)c1ccc(-c2ccc3nnn(Cc4cc5cccnc5cc4F)c3n2)cc1Cl [Ex 134, 2-Chloro-4-(3-((7-fluoroquinolin-6-yl)methyl)-3H-[1,2,3]triazolo[4,5-b]pyridin-5-yl)benzamide]",–,–,≤ 50 nM,≤ 25 nM,A (A = >50 to 100%),75 to 100%,≤ 50 nM,≤ 25 nM,–,≤ 10 nM,10 to 50 nM,≤ 50 nM,50 to 75%,–
